According to ChEMBL document CHEMBL6103545, “Discovery of GS-2278, a Potent and Selective LPAR1 Antagonist for the Treatment of Idiopathic Pulmonary Fibrosis” (J Med Chem, 2025):

Legend:
[1] = Metabolic stability in cynomolgus monkey liver microsomes assessed as intrinsic clearance at 1 uM by LC/MS/MS analysis; type: ADME, Macaca fascicularis, Microsome; conditions: read-out: CLH (converted)
[2] = AUC (0 to 24 hrs) in Beagle dog at 5 mg/kg, po measured after 24 hrs by LC/MS/MS analysis; type: ADME, organism-based, Canis lupus familiaris; conditions: in vivo
[3] = Toxicity in Beagle dog CNS at 60 mg/kg/day, po measured after 7 days by radiotelemetry; type: organism-based, Canis lupus familiaris; conditions: in vivo, 168 h, time 7 day
[4] = molecular target: T1, Lysophosphatidic acid receptor 1 (Homo sapiens, UniProt Q92633); assay: Antagonist activity at human LPA1 receptor overexpressed in CHO cells pre-incubated for 1 hr followed by LPA addition by fluorescence based FLIPR calcium assay; type: functional, cell-based
[5] = Half-life in male Sprague-Dawley rat at 5 mg/kg, po measured after 24 hrs by LC/MS/MS analysis; type: ADME, organism-based; conditions: in vivo
[6] = Toxicity in Beagle dog CNS at 20 mg/kg/day, po measured after 28 days by radiotelemetry; type: organism-based, Canis lupus familiaris; conditions: in vivo, 672 h, time 28 day
[7] = Plasma protein binding in human assessed as unbound fraction incubated for 24 hrs by equilibrium dialysis based Rapidfire-QToF mass spectrometric analysis; type: ADME, cell-free
Cytochrome P450 2B6 = molecular target: T2, Cytochrome P450 2B6 (Homo sapiens, UniProt P20813); assay: Inhibition of CYP2B6 (unknown origin) using midazolam as substrate; type: ADME
T2 sequence (P20813 whole entry): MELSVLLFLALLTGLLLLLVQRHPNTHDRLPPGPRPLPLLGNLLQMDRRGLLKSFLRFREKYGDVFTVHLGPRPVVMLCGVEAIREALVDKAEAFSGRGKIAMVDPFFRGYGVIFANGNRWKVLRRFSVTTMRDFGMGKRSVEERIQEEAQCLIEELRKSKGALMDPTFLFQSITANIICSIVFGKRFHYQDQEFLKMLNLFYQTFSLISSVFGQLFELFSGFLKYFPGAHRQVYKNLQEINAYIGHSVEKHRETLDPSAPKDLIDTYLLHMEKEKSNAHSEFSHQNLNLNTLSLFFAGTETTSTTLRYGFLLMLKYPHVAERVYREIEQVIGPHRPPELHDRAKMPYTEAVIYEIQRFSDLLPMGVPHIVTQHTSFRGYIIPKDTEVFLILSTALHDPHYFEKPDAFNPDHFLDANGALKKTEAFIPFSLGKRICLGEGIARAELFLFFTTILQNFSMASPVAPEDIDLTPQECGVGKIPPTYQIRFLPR

[8] = Plasma protein binding in cynomolgus monkey assessed as unbound fraction at 2 uM incubated for 24 hrs by LC-MS analysis; type: ADME, cell-free, Macaca fascicularis
[9] = molecular target: T1, Lysophosphatidic acid receptor 1; assay: Antagonist activity at human LPA1 receptor expressed in HEK293 cells assessed as Galpha15 effector recruitment incubated for 10 mins by BRET assay; type: functional, cell-based
[10] = Lipophilicity, logD of compound at pH 7.4; type: physicochemical; conditions: buffer
[11] = Unbound drug concentration in CD-1 mouse brain at 2 uM incubated for 5 hrs by LC-MS analysis; type: ADME, tissue-based
[12] = Plasma protein binding in female CD-1 mouse assessed as unbound fraction at 2 uM incubated for 24 hrs by LC-MS analysis; type: ADME, cell-free
[13] = molecular target: Voltage-gated inwardly rectifying potassium channel KCNH2 (Homo sapiens, UniProt Q12809); assay: Inhibition of human ERG; type: toxicity
[14] = Apparent permeability across apical to basolateral side in cMDR1 knockout MDCK-II cells incubated upto 240 mins by RF-QToF analysis; type: ADME, cell-based, Canis lupus familiaris; conditions: dog
[15] = molecular target: T1, Lysophosphatidic acid receptor 1; assay: Antagonist activity at human LPA1 receptor expressed in HEK293 cells assessed as Galpha13 effector recruitment incubated for 10 mins by BRET assay; type: functional, cell-based
[16] = Apparent permeability from basolateral to apical side in human Caco-2 cells at 10 uM; type: ADME, cell-based
[17] = molecular target: T1, Lysophosphatidic acid receptor 1; assay: Antagonist activity at human LPA1 receptor expressed in HEK293 cells assessed as Galpha12 effector recruitment incubated for 10 mins by BRET assay; type: functional, cell-based
[18] = AUC (0 to 24 hrs) in cynomolgus monkey at 5 mg/kg, po measured after 24 hrs by LC/MS/MS analysis; type: ADME, organism-based, Macaca fascicularis; conditions: in vivo
[19] = molecular target: Lysophosphatidic acid receptor 5 (Homo sapiens, UniProt Q9H1C0); assay: Antagonist activity at human LPA5 receptor overexpressed in CHO cells pre-incubated for 1 hr followed by LPA addition by fluorescence based FLIPR calcium assay; type: functional, cell-based
[20] = Volume of distribution in Beagle dog at 1 mg/kg, iv measured after 24 hrs by LC/MS/MS analysis; type: ADME, organism-based, Canis lupus familiaris; conditions: in vivo
[21] = Plasma protein binding in Beagle dog assessed as unbound fraction at 2 uM incubated for 24 hrs by LC-MS analysis; type: ADME, cell-free, Canis lupus familiaris
[22] = molecular target: T1, Lysophosphatidic acid receptor 1; assay: Antagonist activity at LPA1 receptor in serum starved human Primary lung fibroblast cells pre-incubated for 1 hr followed by LPA stimulation and measured after 30 min by MRTF-A assay; type: cell-based
Cytochrome P450 2C19 = Cytochrome P450 2C19 (Homo sapiens, UniProt P33261); assay: Inhibition of CYP2C19 (unknown origin) using midazolam as substrate; type: ADME
[23] = molecular target: T1, Lysophosphatidic acid receptor 1; assay: Antagonist activity at LPA1 receptor in human TWNT-4 cells pre-incubated for 1 hr followed by LPA stimulation and measured after 30 min in presence of 4% human serum albumin by MRTF-A assay; type: cell-based
[24] = Volume of distribution in cynomolgus monkey at 1 mg/kg, iv measured after 24 hrs by LC/MS/MS analysis; type: ADME, organism-based, Macaca fascicularis; conditions: in vivo
[25] = Volume of distribution in male Sprague-Dawley rat at 1 mg/kg, iv s measured after 24 hrs by LC/MS/MS analysis; type: ADME, organism-based; conditions: in vivo
[26] = Plasma protein binding in human assessed as unbound fraction at 2 uM incubated for 24 hrs by LC-MS analysis; type: ADME, cell-free
[27] = Metabolic stability in Beagle dog liver microsomes assessed as intrinsic clearance at 1 uM by LC/MS/MS analysis; type: ADME, Canis lupus familiaris, Microsome; conditions: read-out: CLH (converted)
Cytochrome P450 1A2 = molecular target: T3, Cytochrome P450 1A2 (Homo sapiens, UniProt P05177); assay: Inhibition of CYP1A2 (unknown origin) using midazolam as substrate; type: ADME
T3 sequence (P05177 whole entry): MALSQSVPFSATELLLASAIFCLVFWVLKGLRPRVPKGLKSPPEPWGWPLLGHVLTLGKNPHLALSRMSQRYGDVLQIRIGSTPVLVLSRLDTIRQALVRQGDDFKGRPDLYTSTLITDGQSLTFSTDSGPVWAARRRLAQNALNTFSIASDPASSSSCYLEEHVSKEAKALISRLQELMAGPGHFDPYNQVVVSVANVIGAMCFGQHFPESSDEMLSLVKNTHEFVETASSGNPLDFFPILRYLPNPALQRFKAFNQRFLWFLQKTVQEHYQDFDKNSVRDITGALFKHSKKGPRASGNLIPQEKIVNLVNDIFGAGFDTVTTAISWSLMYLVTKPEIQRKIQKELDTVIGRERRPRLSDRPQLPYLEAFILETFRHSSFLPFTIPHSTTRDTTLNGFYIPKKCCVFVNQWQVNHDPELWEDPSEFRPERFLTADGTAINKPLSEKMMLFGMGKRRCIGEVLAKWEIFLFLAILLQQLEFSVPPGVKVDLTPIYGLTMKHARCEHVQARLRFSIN

[28] = Oral bioavailability in Beagle dog at 5 mg/kg measured after 24 hrs by LC/MS/MS analysis; type: ADME, organism-based, Canis lupus familiaris; conditions: in vivo

T1 sequence (Q92633 whole entry): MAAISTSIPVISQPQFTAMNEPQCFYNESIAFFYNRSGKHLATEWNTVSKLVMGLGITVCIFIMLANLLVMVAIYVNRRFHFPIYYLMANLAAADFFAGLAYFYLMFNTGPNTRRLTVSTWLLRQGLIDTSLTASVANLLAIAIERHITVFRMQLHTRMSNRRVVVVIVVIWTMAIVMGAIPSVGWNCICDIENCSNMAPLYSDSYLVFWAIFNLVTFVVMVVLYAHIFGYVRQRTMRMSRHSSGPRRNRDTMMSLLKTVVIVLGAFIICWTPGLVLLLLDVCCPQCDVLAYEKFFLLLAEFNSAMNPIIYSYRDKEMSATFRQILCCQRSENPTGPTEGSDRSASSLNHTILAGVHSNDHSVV
Sequence of Voltage-gated inwardly rectifying potassium channel KCNH2 (Q12809 whole entry): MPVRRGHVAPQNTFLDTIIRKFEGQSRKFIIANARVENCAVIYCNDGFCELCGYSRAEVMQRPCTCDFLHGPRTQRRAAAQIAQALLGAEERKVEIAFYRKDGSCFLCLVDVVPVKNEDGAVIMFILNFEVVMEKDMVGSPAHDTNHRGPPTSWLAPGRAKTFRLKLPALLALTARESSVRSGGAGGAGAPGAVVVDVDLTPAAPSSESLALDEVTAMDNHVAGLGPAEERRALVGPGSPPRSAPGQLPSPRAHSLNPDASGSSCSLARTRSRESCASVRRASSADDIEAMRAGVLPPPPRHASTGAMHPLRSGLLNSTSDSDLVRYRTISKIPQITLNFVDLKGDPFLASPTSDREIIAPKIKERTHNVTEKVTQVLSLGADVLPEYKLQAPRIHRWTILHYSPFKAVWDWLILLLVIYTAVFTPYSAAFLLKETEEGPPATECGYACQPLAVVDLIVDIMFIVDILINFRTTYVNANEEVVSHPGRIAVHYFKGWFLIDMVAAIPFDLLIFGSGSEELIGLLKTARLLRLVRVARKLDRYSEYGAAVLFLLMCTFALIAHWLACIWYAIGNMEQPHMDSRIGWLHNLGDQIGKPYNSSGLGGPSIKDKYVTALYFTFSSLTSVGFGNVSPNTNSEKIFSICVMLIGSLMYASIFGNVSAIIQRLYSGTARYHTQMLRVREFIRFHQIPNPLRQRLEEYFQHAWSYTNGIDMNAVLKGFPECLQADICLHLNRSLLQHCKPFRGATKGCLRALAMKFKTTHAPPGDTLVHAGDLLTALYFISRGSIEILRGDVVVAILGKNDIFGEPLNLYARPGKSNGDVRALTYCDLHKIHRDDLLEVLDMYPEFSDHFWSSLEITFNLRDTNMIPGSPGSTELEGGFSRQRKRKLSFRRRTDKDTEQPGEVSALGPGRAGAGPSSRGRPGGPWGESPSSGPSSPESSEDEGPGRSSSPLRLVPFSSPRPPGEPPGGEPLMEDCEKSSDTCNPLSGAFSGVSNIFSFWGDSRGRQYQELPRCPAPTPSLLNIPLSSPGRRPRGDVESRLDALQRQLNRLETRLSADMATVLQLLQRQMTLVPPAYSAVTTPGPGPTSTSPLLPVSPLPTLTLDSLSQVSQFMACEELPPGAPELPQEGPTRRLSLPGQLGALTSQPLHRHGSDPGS
Sequence of Lysophosphatidic acid receptor 5 (Q9H1C0 whole entry): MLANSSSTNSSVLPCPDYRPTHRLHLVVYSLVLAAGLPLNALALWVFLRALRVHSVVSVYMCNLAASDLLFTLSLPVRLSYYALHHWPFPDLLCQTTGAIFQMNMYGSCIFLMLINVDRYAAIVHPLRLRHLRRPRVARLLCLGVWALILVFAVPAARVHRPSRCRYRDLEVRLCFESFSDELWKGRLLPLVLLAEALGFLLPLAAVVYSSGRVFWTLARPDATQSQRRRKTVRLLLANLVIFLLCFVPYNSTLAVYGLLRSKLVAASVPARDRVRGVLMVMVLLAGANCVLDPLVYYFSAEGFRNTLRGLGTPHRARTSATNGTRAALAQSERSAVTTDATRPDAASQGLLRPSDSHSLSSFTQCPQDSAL
Sequence of Cytochrome P450 2C19 (P33261 whole entry): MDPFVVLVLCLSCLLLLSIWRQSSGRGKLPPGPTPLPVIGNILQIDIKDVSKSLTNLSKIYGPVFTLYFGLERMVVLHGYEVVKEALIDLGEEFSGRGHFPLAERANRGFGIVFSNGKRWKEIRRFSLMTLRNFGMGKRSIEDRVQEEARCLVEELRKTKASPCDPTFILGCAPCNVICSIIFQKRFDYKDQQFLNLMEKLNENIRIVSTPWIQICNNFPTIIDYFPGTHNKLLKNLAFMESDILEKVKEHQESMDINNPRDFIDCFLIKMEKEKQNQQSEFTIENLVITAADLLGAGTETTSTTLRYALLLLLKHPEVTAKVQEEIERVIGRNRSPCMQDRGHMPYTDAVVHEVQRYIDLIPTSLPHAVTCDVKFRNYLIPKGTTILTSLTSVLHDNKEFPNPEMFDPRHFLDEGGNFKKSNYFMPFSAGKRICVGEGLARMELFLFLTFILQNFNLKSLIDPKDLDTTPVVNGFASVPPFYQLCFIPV

C[C@@H](OC(=O)Nc1c(-c2ccc(NC(=O)c3cnc(C(F)(F)F)nc3)cn2)nnn1C)c1cc(F)cnc1F
CLint scaled at 1 µM [1]: 7.5 mL/min/kg
AUC(0-t) at 24 h [2]: 54 µM·h
Activity [3]: Non-toxic
EC50 [4]: 38 nM
half-life [5]: 3.9 h
Activity [6]: Non-toxic
fraction unbound at 24 h [7]: 0.19
inhibition (INH) (Cytochrome P450 2B6): Not_active
fraction unbound at 24 h, 2 µM [8]: 0.24
EC50 [9]: 46.1 nM
logD [10]: 2.7
fraction unbound at 5 h, 2 µM [11]: 0.133
fraction unbound at 24 h, 2 µM [12]: 0.066
IC50 [13]: > 30000 nM
Papp A→B at 4 h [14]: 11 ×10⁻⁶ cm/s
EC50 [15]: 71 nM
Papp B→A at 10 µM [16]: 17 ×10⁻⁶ cm/s
EC50 [17]: 107 nM
AUC(0-t) at 24 h [18]: 8.9 µM·h
EC50 [19]: > 10000 nM
Vd [20]: 0.4 L/kg
fraction unbound at 24 h, 2 µM [21]: 0.095
EC50 [22]: 8 nM
inhibition (INH) (Cytochrome P450 2C19): Not_active
EC50 [23]: 34 nM
Vd [24]: 0.8 L/kg
Vd [25]: 0.8 L/kg
fraction unbound at 24 h, 2 µM [26]: 0.14
CLint scaled at 1 µM [27]: 1.5 mL/min/kg
inhibition (INH) (Cytochrome P450 1A2): Not_active
bioavailability [28]: 49%
